From patent publication US5098932A, “Cyclic ether derivatives” (Imperial Chemical Industries PLC, ICI Pharma, priority 1988, dated 1992)

Tests used:
cyclooxygenase (TxB2) = test: In vitro heparinised human blood assay, A23187 challenge, TxB2 radioimmunoassay, test b); format: cell-based
Experimental: (§1) b) An in vitro assay system involving incubating a test compound with heparinised human blood, prior to challenge with the calcium ionophore A23187 and then indirectly measuring the inhibitory effects on 5-LO by assaying the amount of LTB4 using the specific radioimmunoassay described by Carey and Forder (F. Carey and R. A. Forder, Brit. J. Pharmacol. 1985, 84, 34P) which involves the use of a protein-LTB4 conjugate produced using the procedure of Young et alia (Prostaglandins, 1983, 26(4),605-613). The effects of a test compound on the enzyme cyclooxygenase (which is involved in the alternative metabolic pathway for arachidonic acid and gives rise to prostaglandins, thromboxanes and related metabolites) may be measured at the same time using the specific radioimmunoassay for thromboxane B2 (T×B2) described by Carey and Forder (see above). This test provides an indication of the effects of a test compound against 5-LO and also cyclooxygenase in the presence of blood cells and proteins. It permits the selectivity of the inhibitory effect on 5-LO or cyclooxygenase to be assessed.

5-LO (LTB4) = test: In vitro heparinised human blood assay, A23187 challenge, LTB4 radioimmunoassay, test b); format: cell-based
Experimental: as §1

IC50 (cyclooxygenase (TxB2)): > 40000 nM | IC50 (5-LO (LTB4)): 100 nM
Compound: CCC1(c2cccc(OCc3ccc4ccccc4c3)c2)COC(C)(C)O1 (centres unmarked) [4-ethyl-2,2-dimethyl-4-[3-(naphth-2-ylmethoxy)phenyl]-1,3-dioxolane]
